Counter-ions that a name gives are not always drawn.
Columns and labels:
BxPC3 = test: Cell based screen for inhibitors of Raf and/or Mek kinase (SRB), BxPC3; conditions: Homo sapiens, BXPC-3, BxPC3 cells, (a)/(b) = average of two/three runs
Method: [The procedure below names another cell line; the source lists this cell line under the same test.] (§1) Cell Based Screen for Inhibitors of Raf and/or Mek Kinase. Materials
(§2) Cells are plated at 2000 cells per well for cell line LoVo and 1500 cells for cell line CaCo-2 in 96 well plates. Cells are plated in media (200 μl) and allowed to adhere overnight at 37° C. At 24 hours post plating, compounds are added directly at a volume of 0.5 μl. For the qualitative screen (compounds screened at 25 μM) compound is added directly to cells. For the quantitative screen, compound is first diluted in DMSO to generate concentrations of compound or reference standard of: 1, 5, 10 and 25 μM. It is advisable to make the dilutions in an identical 96 well plate so that compounds can be added using a multichannel micropipettor set at 0.5 μl. The cells are then incubated for four days after which the media is removed using a 12 well manifold by first tipping the plate forward at a 45 degree angle and then inserting the manifold in an upright orientation to prevent the tips of the manifold from disturbing cells at the bottom of the plate. 200 μl of normal saline is then added to each well using an 8 well multichannel pipettor, followed by the careful addition of 50 μl of 50% TCA. The plates are then incubated for 2 hours at 4° C., after which the supernatant is removed using the same technique as above and the plated cells are washed twice with 200 μl water. The plates are then air dried and 50 μl of SRB stock solution is carefully added so that the entire bottom of each well is covered. This again can be done using an 8 well multichannel pipettor. The SRB is incubated with fixed cells for 15 minutes at room temperature after which the SRB is removed with the manifold as described above and the plates washed twice with 350 μl of 1% acetic acid per well each time. The plates are then air dried after which the bound SRB is released from protein by the addition of 200 μl of Tris base. Resolubilizing the SRB is aided by placing the plates on a rotator for 15-30 minutes. The absorbance of each well is determined at 550 or 562 nm using a microtiter plate reader.
(§3) Each compound or dilution thereof is performed in triplicate. Outliers are identified by visual inspection of the data. Each plate should have a “0” control (vehicle only).
(§4) Quantitative Assay: A standard curve is constructed by plotting the concentration of compound against the average absorbance calculated at that concentration. A curve is plotted and the concentration at which the curve passes through the 50% the absorbance mark seen in the “0” control well is the IC50 calculated for that compound. Multiple entries for a given compound indicate that it is tested multiple times.

LoVo = test: Cell based screen for inhibitors of Raf and/or Mek kinase (SRB), LoVo; parameters: species or system human; conditions: LoVo cells, four days incubation, (a)/(b)/(c) = average of two/three/five runs
Method: as §1
Cell Lines: Human adenocarcinoma cell line LoVo, known to be growth inhibited by low nM concentrations of a reference standard inhibitor of Ras and human adenocarcinoma cell line CaCo-2, known to be growth resistant to the same reference compound.
Cell Media: RPMI 1640 with 10% Fetal Bovine Serum supplemented with L-glutamine and Penicillin/Streptomycin.
as §2, §3, §4

[1] = biological target: T1, Raf and/or Mek kinase (human c-Raf, GST-MEK1) (Homo sapiens, UniProt P04049+Q02750); test: Raf/Mek kinase cascade assay; format: biochemical; conditions: c-Raf dependent activation of GST-MEK and GST-MAPK, phospho-MAPK ELISA; (a)/(b)/(c) = average of two/three/four runs
T1 construct: Sf9 insect cell lysate containing full length 6his-tagged recombinant human c-Raf; 6His; host or cells: Sf9 insect cells (c-Raf, used as lysate); E. coli (MEK1-GST, GST-MAPK)
Method: Raf/Mek Kinase Cascade Assay Procedure
(Specific Activity: ˜200 U/ml). Human Non-active Mek-1-GST and human GST-MAP kinase (recombinant proteins produced in E. coli).
Stock Solutions Raf/Mek Cascade Assay:
• 1. Assay Dilution Buffer (ADB): 20 mM MOPS, pH 7.2, 25 mM β-glycerol phosphate, 5 mM EGTA, 1 mM sodium orthovanadate, 1 mM dithiothreitol; • 2. Magnesium/ATP Cocktail: 500 μM cold ATP and 75 mM magnesium chloride in ADB; • 3. Active Kinase: Human Active c-Raf: Use at 0.4 U per assay point; • 4. Non-active GST-MEK1: Use at 0.1 μg per assay point; and • 5. Non-active GST-p42 MAP Kinase: Use at 1.0 μg per assay point. Stock Solutions ELISA: • 1. TBST-Tris (50 mM, pH 7.5), NaCl (150 mM), Tween-20 (0.05%); • 2. Superblock (Pierce); • 3. Anti-GST Ab (Pharmacia); • 4. Anti-Phospho MAPK (Sigma); and • 5. Anti-Mouse Ab/Europium conjugate (Wallac). Assay Procedure: First Stage: c-Raf Dependent Activation of GST-MEK and GST-MAPK • 1. Add […] of ADB per assay (i.e. per well of a 96 well plate); • 2. Add 10 ml of 0.5 mM cold ATP and 75 mM magnesium chloride in ADB; • 3. Add 2 ml of c-Raf (0.4 U/assay), in conjunction with 1.6 ml non-active MEK1 (0.4 […]/assay); • 4. Add 4 ml of non-active GST-p42 MAP Kinase (1.0 mg/assay); • 5. Incubate for 60 minutes at 30° C. in a shaking incubator; • 6. Transfer this mixture to an anti-GST Ab coated 96 well plate (Nunc Immunosorb plates coated o/n with a-GST, then blocked with Pierce Superblock); • 7. Incubate for 60 minutes at 30° C. in a shaking incubator; • 8. Wash 3× with TBST, add Anti-Phospho MAPK (Sigma) (1:3000); • 9. Incubate for 60 minutes at 30° C. in a shaking incubator; • 10. Wash 3× with TBST, add Anti-Mouse Ab/Europium conjugate (Wallac) (1:500); • 11. Incubate for 60 minutes at 30° C. in a shaking incubator; • 12. Wash 3× with TBST, Read plates in Wallac Victor model Plate Reader; and • 13. Collect data analyze in Excel for single point and IC50 determinations.
Single point assay—% inhibition at […] (% Inhibition=1−cpd·treated sample/untreated control). IC50 determinations—done on compounds from single point assays with >80% inhibition. Typically, the Raf/Mek assay is run at compound concentrations from 10 μM to 1 nM in half log dilutions. (% inhibition is determined for each compound concentration). The results obtained measure Raf and/or Mek kinase inhibition, and for representative compounds of this invention are listed in Table 1.

T1 sequence (P04049 whole entry): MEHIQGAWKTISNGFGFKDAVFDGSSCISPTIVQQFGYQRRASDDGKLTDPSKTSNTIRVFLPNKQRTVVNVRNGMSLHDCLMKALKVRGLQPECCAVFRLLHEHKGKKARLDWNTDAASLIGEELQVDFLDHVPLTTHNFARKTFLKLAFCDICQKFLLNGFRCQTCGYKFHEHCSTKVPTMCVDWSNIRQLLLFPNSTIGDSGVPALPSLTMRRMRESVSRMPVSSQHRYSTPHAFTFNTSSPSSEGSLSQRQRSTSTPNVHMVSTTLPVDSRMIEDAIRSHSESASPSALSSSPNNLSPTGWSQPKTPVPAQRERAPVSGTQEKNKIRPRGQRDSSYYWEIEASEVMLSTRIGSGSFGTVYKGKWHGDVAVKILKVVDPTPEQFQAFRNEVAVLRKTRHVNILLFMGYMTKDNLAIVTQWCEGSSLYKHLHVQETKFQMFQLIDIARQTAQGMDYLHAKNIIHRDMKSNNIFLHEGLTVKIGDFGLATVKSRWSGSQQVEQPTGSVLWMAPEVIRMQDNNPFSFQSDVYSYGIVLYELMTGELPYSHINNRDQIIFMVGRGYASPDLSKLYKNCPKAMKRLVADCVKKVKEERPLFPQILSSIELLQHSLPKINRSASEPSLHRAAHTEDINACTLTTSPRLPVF
T1 sequence (Q02750 whole entry): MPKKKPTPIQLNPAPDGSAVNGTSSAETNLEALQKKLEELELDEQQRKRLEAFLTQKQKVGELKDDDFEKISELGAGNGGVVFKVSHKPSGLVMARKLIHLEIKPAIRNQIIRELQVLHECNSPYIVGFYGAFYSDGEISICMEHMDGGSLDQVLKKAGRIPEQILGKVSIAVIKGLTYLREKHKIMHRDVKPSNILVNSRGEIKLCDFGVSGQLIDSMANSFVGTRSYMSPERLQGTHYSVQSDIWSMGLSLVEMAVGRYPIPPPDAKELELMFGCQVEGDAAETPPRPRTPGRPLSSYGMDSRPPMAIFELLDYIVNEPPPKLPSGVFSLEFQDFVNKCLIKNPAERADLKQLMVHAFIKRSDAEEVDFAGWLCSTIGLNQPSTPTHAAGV

**Q.** Which melting point does the source give for `COc1cc2c(Nc3ccc(Sc4nccn4C)c(Cl)c3)c(C#N)cnc2cc1OCCN1CCC(N2CCCC2)CC1` [Example 36, 4-{3-Chloro-4-[(1-methyl-1H-imidazole-2-yl)sulfanyl]anilino}-6-methoxy-7-{2-[4-(1-pyrrolidinyl)-1-piperidinyl]ethoxy}-3-quinolinecarbonitrile] here?
**A.** 127 to 130 °C

**Q.** What does the source list for `COc1cc2c(Nc3ccc(Sc4nccn4C)c(Cl)c3)c(C#N)cnc2cc1OCCCN1CCC(N2CCCC2)CC1` [Example 33, 4-{3-Chloro-4-[(1-methyl-1H-imidazole-2-yl)sulfanyl]anilino}-6-methoxy-7-{3-[4-(1-pyrrolidinyl)-1-piperidinyl]propoxy}-3-quinolinecarbonitrile]?
**A.** IC50 (BxPC3): 0.049 µM; IC50 (LoVo; Homo sapiens, 96 h): 0.047 µM; IC50 [1]: 0.003 µM; melting point: 196 to 198 °C

**Q.** With `COCCOc1cc2c(Nc3ccc(Sc4nccn4C)c(Cl)c3)c(C#N)cnc2cc1N1CCC(N2CCCC2)CC1` [Example 17, 4-({3-Chloro-4-[(1-methyl-1H-imidazole-2-yl)thio]phenyl}amino)-6-(2-methoxyethoxy)-7-(4-pyrrolidin-1-ylpiperidin-1-yl)quinoline-3-carbonitrile] as the compound, how does the IC50 (LoVo; Homo sapiens, 96 h) read?
**A.** 0.031 µM

**Q.** And the IC50 [1]?
**A.** 0.32 µM

**Q.** What about the melting point of the same compound?
**A.** 238 to 241 °C

**Q.** What does the source list for `COc1cc2c(Nc3ccc(Sc4nccn4C)c(Cl)c3)c(C#N)cnc2cc1N1CCN(CCn2ccnc2)CC1` [Example 23, 4-({3-Chloro-4-[(1-methyl-1H-imidazole-2-yl)thio]phenyl}amino)-7-{4-[2-(1H-imidazole-1-yl)ethyl]piperazin-1-yl}-6-methoxyquinoline-3-carbonitrile]?
**A.** IC50 (LoVo; Homo sapiens, 96 h): 0.474 µM; IC50 [1]: 0.188 µM; melting point: 251 to 253 °C

**Q.** Which IC50 (LoVo) does the source give for `COc1cc2c(Nc3ccc(Sc4nccn4C)c(Cl)c3)c(C#N)cnc2cc1N1CCC(N2CCCCC2)CC1` [Example 19] here?
**A.** 0.008 µM

**Q.** And the IC50 [1]?
**A.** 0.199 µM

**Q.** Which results are given for `COc1cc2c(Nc3ccc(Sc4nccn4C)c(Cl)c3)c(C#N)cnc2cc1N1CCN(C2CCN(C)CC2)CC1` [Example 22, 4-({3-Chloro-4-[(1-methyl-1H-imidazole-2-yl)thio]phenyl}amino)-6-methoxy-7-[4-(1-methylpiperidin-4-yl)piperazin-1-yl]quinoline-3-carbonitrile]?
**A.** IC50 (LoVo; Homo sapiens, 96 h): 0.08 µM; IC50 [1]: 0.273 µM; melting point: 220 to 226 °C

**Q.** With `N#Cc1cnc2cc(N3CCC(N4CCCC4)CC3)c([N+](=O)[O-])cc2c1Cl` [Example 25, 4-chloro-6-nitro-7-(4-pyrrolidin-1-ylpiperidin-1-yl)quinoline-3-carbonitrile] as the compound, how does the melting point read?
**A.** 255 to 265 °C (dec.)

**Q.** With `COc1cc2c(Nc3ccc(Sc4nccn4C)c(Cl)c3)c(C#N)cnc2cc1N1CCC(N2CCOCC2)CC1` [Example 21, 4-({3-Chloro-4-[(1-methyl-1H-imidazole-2-yl)thio]phenyl}amino)-6-methoxy-7-(4-morpholin-4-ylpiperidin-1-yl)quinoline-3-carbonitrile] as the compound, how does the IC50 (LoVo; Homo sapiens, 96 h) read?
**A.** 0.02 µM

**Q.** What about the IC50 [1] of the same compound?
**A.** 0.181 µM

**Q.** And the melting point?
**A.** 219 to 221 °C

**Q.** For `Cn1ccnc1Sc1ccc(Nc2c(C#N)cnc3cc(N4CCC(N5CCCC5)CC4)c([N+](=O)[O-])cc23)cc1Cl` [Example 26, 4-({3-Chloro-4-[(1-methyl-1H-imidazole-2-yl)thio]phenyl}amino)-6-nitro-7-(4-pyrrolidin-1-ylpiperidin-1-yl)quinoline-3-carbonitrile], which melting point is on record?
**A.** 220 to 230 °C

**Q.** What does the source list for `CC(=O)Nc1cc2c(Nc3ccc(Sc4nccn4C)c(Cl)c3)c(C#N)cnc2cc1N1CCC(N2CCCC2)CC1` [Example 29, N-[4-({3-Chloro-4-[(1-methyl-1H-imidazole-2-yl)thio]phenyl}amino)-3-cyano-7-(4-pyrrolidin-1-ylpiperidin-1-yl)quinolin-6-yl]acetamide]?
**A.** IC50 (BxPC3): 0.008 µM; IC50 (LoVo; Homo sapiens, 96 h): 0.004 µM; IC50 [1]: 1.64 µM; melting point: 243 to 255 °C

**Q.** For `Cn1ccnc1Sc1ccc(Nc2c(C#N)cnc3cc(N4CCC(N5CCCC5)CC4)c(N)cc23)cc1Cl` [Example 27, 6-Amino-4-[3-chloro-4-(1-methyl-1H-imidazole-2-ylsulfanyl)phenylamino]-7-(4-pyrrolidin-1-yl-piperidin-1-yl)quinoline-3-carbonitrile], which melting point is on record?
**A.** 265 to 267 °C

**Q.** Which results are given for `Cn1ccnc1Sc1ccc(Nc2c(C#N)cnc3cc(N4CCC(N5CCCC5)CC4)ccc23)cc1Cl` [Example 16]?
**A.** IC50 (BxPC3): 0.03 µM; IC50 (LoVo; Homo sapiens, 96 h): 0.009 µM; IC50 [1]: 0.035 µM; melting point: 125 to 130 °C

**Q.** With `CNc1cc2c(Nc3ccc(Sc4nccn4C)c(Cl)c3)c(C#N)cnc2cc1N1CCC(N2CCCC2)CC1` [Example 30, 4-({3-Chloro-4-[(1-methyl-1H-imidazole-2-yl)thio]phenyl}amino)-6-(methylamino)-7-(4-pyrrolidin-1-ylpiperidin-1-yl)quinoline-3-carbonitrile] as the compound, how does the IC50 (BxPC3) read?
**A.** 0.03 µM

**Q.** And the IC50 (LoVo; Homo sapiens, 96 h)?
**A.** 0.014 µM

**Q.** And the IC50 [1]?
**A.** 0.22 µM

**Q.** What about the melting point of the same compound?
**A.** 242 to 250 °C

**Q.** Which melting point does the source give for `N#Cc1c[nH]c2cc(N3CCC(N4CCCC4)CC3)c([N+](=O)[O-])cc2c1=O` [Example 24, 6-Nitro-4-oxo-7-(4-pyrrolidin-1-ylpiperidin-1-yl)-1,4-dihydroquinoline-3-carbonitrile] here?
**A.** 232 to 235 °C

**Q.** Which results are given for `COc1ccccc1Oc1ccc(Nc2c(C#N)cnc3cc(N4CCC(N5CCCC5)CC4)c(OC)cc23)cc1` [Example 12, 6-Methoxy-4-{[4-(2-methoxyphenoxy)phenyl]amino}-7-(4-pyrrolidin-1-ylpiperidin-1-yl)quinoline-3-carbonitrile, trifluoroacetate salt]?
**A.** IC50 (BxPC3): 1.4 µM; IC50 (LoVo; Homo sapiens, 96 h): 0.46 µM; IC50 [1]: 0.21 µM

Reference: patent US7767671B2, “3-Quinolinecarbonitrile protein kinase inhibitors” (Wyeth, priority 2004, dated 2010)
